≈ marks a conversion by molar mass, not a printed value. Ends that are not written are not given here.
Key:
Type in all cases: cell-based
[1] = tested on: Enterococcus faecalis CIP 103015; assay: MIC/MBC (Example 10, MH medium)
Description: (§1) The MIC is determined using a growth inhibition test in liquid medium. The MIC is defined as being the lowest peptide concentration capable of inhibiting the bacterial strain tested, after incubation for 18 h at 37° C. The test was carried out in a sterile microtitration plate containing 96 wells. A series of increasing concentrations of each peptide (0.2 to 100 µM) was prepared beforehand in sterile MilliQ water. In each well, 10 µL of peptide was incubated with 90 µL of bacterial suspension (10^7 cfu/mL) in yeast extract-free LB medium. The microplate was incubated at 37° C. for 18 h. The bacterial growth was evaluated by measuring the OD at 620 nm using a plate reader.
(§2) The negative growth inhibition control was obtained by replacing the solution containing the peptide by sterile MilliQ water. The positive control suitable for completely inhibiting the growth of the bacterial strains was obtained by replacing the solution containing the peptide by 10 µL of formaldehyde.
(§3) The results are interpreted by calculating the percentage of bacterial growth in each well according to the formula:
(§4) %Growth = (OD well - OD of T0)/(OD of T100-OD of T0)*100 where
(§5) • OD of T100 = OD of growth control (bacterial suspension free from sample under test, 100% growth), • OD of T0 = OD of sterility control (culture medium + bacterium + 10 µL formaldehyde, 0% growth) and • OD well = OD of well for which it is sought to calculate the growth percentage (bacterial suspension + peptide under test).
(§6) The MBC is defined as being the minimum peptide concentration leaving no surviving bacteria of the inoculum after incubation at 37° C. for 24 hours. This test consists of smearing the contents of the well wherein the peptide has inhibited bacterial growth on a Petri dish (LB agar), followed by incubation for 24 h at 37° C.
(§7) A 10 mL preculture in Muller-Hinton (MH) medium is prepared by inoculating a colony of the bacterial strain of interest. The preculture is incubated at 37° C. under stirring overnight. The culture is subcultured to 1:100 under the same conditions. The culture concentration is evaluated by measuring the turbidity at 600 nm (OD600 nm 1.0 = 5 × 10^8 CFU/mL for E. coli (Gram-negative bacteria) and 1.5 × 10^8 CFU/mL for S. aureus (Gram-positive bacteria). Once the exponential growth phase (OD600 nm = 0.3 - 0.7) has been achieved, the cultures are diluted in MH medium so as to obtain 10^6 CFU/mL (final inoculum concentration).
(§8) The MIC and the MBC were determined as per the protocol described in part 2.1 of Example 2.

[2] = tested on: Enterococcus faecalis CIP A186; assay: MIC/MBC (Example 10, MH medium); conditions: Table 4
Description: as §1, §2, §3, §4, §5, §6, §7, §8

[3] = tested on: Escherichia coli ATCC 8739; assay: MIC/MBC (Example 10, MH medium)
Description: as §1, §2, §3, §4, §5, §6, §7, §8

[4] = tested on: Escherichia coli K12; assay: MIC/MBC (Example 10, MH medium); conditions: Table 4
Description: as §1, §2, §3, §4, §5, §6, §7, §8

[5] = tested on: Escherichia coli ML35p; assay: MIC/MBC (Example 10, MH medium); conditions: Table 4
Description: as §1, §2, §3, §4, §5, §6, §7, §8

[6] = tested on: Escherichia coli P7 (ESBL); assay: MIC/MBC (Example 10, MH medium); conditions: Table 4
Description: as §1, §2, §3, §4, §5, §6, §7, §8

[7] = tested on: Klebsiella oxytoca CIP 7932; assay: MIC/MBC (Example 10, MH medium); conditions: Table 4
Description: as §1, §2, §3, §4, §5, §6, §7, §8

[8] = tested on: Klebsiella pneumoniae CIP 52.211; assay: MIC/MBC (Example 10, MH medium); conditions: Table 4
Description: as §1, §2, §3, §4, §5, §6, §7, §8

[9] = tested on: Kocuria rhizophila ATCC 9341; assay: MIC/MBC (Example 10, MH medium); conditions: Table 4
Description: as §1, §2, §3, §4, §5, §6, §7, §8

[10] = tested on: Lactococcus garviae ATCC 43921; assay: MIC/MBC (Example 10, MH medium); conditions: Table 4
Description: as §1, §2, §3, §4, §5, §6, §7, §8

[11] = tested on: Listeria monocytogenes SOR 100; assay: MIC/MBC (Example 10, MH medium); conditions: Table 4
Description: as §1, §2, §3, §4, §5, §6, §7, §8

[12] = tested on: Pseudomonas aeruginosa ATCC 27853; assay: MIC/MBC (Example 10, MH medium); conditions: Table 4
Description: as §1, §2, §3, §4, §5, §6, §7, §8

[13] = tested on: Pseudomonas aeruginosa ATCC 9027; assay: MIC/MBC (Example 10, MH medium)
Description: as §1, §2, §3, §4, §5, §6, §7, §8

[14] = tested on: Salmonella enterica CIP 8297; assay: MIC/MBC (Example 10, MH medium); conditions: Table 4
Description: as §1, §2, §3, §4, §5, §6, §7, §8

[15] = tested on: Staphylococcus aureus ATCC 6538; assay: MIC/MBC (Example 10, MH medium)
Description: as §1, §2, §3, §4, §5, §6, §7, §8

[16] = tested on: Staphylococcus aureus MRSA; assay: MIC/MBC (Example 10, MH medium); conditions: Table 4
Description: as §1, §2, §3, §4, §5, §6, §7, §8

[17] = tested on: Staphylococcus aureus ST 1065; assay: MIC/MBC (Example 10, MH medium); conditions: Table 4
Description: as §1, §2, §3, §4, §5, §6, §7, §8

[18] = tested on: Staphylococcus epidermidis BM 3302; assay: MIC/MBC (Example 10, MH medium); conditions: Table 4
Description: as §1, §2, §3, §4, §5, §6, §7, §8

[19] = tested on: Vibrio parahemolyticus IFREMER 01/252; assay: MIC/MBC (Example 10, MH medium); conditions: Table 4
Description: as §1, §2, §3, §4, §5, §6, §7, §8

[20] = tested on: Yersinia ruckeri ATCC 29473; assay: MIC/MBC (Example 10, MH medium); conditions: Table 4
Description: as §1, §2, §3, §4, §5, §6, §7, §8

[21] = tested on: immune cells obtained from mouse bone marrow; assay: Cytotoxic effects on immune cells obtained from mouse bone marrow; conditions: 12.5 µM; 2 hours
Description: The mouse immune cells are obtained from C57BL/6 or Balb/c mouse bone marrow. The peptides are incubated at 37° C., 5% CO2 in the presence of 500,000 immune cells in RPMI medium at varied concentrations for 2 hours. Peptide-free cells are used as the negative control and cells in the presence of DMSO (30%) are used as the positive control. After incubation, the cells are washed then labelled with Trypan blue so as to measure the cell viability by microscope counting. The LC50 is then calculated as being the concentration of DA2N, K12A and DANa peptides inducing the death of 50% of the immune cells.

[22] = Table 4, Enterococcus faecalis CIP 103015
[23] = Table 5, E. faecalis CIP 103015
[24] = Table 4, Escherichia coli ATCC 8739
[25] = Table 4, Pseudomonas aeruginosa ATCC 9027
[26] = Table 5, P. aeruginosa ATCC 9027
[27] = Table 4, Staphylococcus aureus ATCC 6538

CC[C@H](C)[C@H](NC(=O)CN)C(=O)NCC(=O)N[C@@H](C)C(=O)N[C@H](C(=O)N[C@@H](CC(C)C)C(=O)N[C@@H](CCCCN)C(=O)N[C@H](C(=O)N[C@@H](CC(C)C)C(=O)N[C@H](C(=O)N[C@H](C(=O)NCC(=O)N[C@@H](CC(C)C)C(=O)N1CCC[C@H]1C(=O)N[C@@H](C)C(=O)N[C@@H](CC(C)C)C(=O)N[C@H](C(=O)N[C@@H](CO)C(=O)N[C@@H](Cc1c[nH]c2ccccc12)C(=O)N[C@H](C(=O)N[C@@H](CCCCN)C(=O)N[C@@H](CCCNC(=N)N)C(=O)N[C@@H](CCCCN)C(=O)N[C@@H](CCCNC(=N)N)C(=O)N[C@@H](CCC(N)=O)C(=O)N[C@@H](CCC(N)=O)C(N)=O)[C@@H](C)CC)[C@@H](C)CC)[C@@H](C)O)[C@@H](C)O)C(C)C)C(C)C [Melittin]
MBC [1, 22]: 1.25 µM (≈ 3.56 µg/mL)
MIC [1, 22]: 1.25 µM (≈ 3.56 µg/mL)
MBC [1, 23]: 1.2 µM (≈ 3.42 µg/mL)
MIC [1, 23]: 1.2 µM (≈ 3.42 µg/mL)
MBC [2]: 12.5 µM (≈ 35.6 µg/mL)
MIC [2]: 12.5 µM (≈ 35.6 µg/mL)
MBC [3, 24]: 2.5 µM (≈ 7.12 µg/mL)
MIC [3, 24]: 2.5 µM (≈ 7.12 µg/mL)
MBC ([3]; Table 5, E. coli ATCC 8739): 2.5 µM (≈ 7.12 µg/mL)
MIC ([3]; Table 5, E. coli ATCC 8739): 2.5 µM (≈ 7.12 µg/mL)
MBC [4]: 10 µM (≈ 28.5 µg/mL)
MIC [4]: 10 µM (≈ 28.5 µg/mL)
MBC [5]: 10 µM (≈ 28.5 µg/mL)
MIC [5]: 10 µM (≈ 28.5 µg/mL)
MBC [6]: 6.25 µM (≈ 17.8 µg/mL)
MIC [6]: 6.25 µM (≈ 17.8 µg/mL)
MBC [7]: 50 µM (≈ 142 µg/mL)
MIC [7]: 25 µM (≈ 71.2 µg/mL)
MBC [8]: 10 µM (≈ 28.5 µg/mL)
MIC [8]: 10 µM (≈ 28.5 µg/mL)
MBC [9]: 0.8 µM (≈ 2.28 µg/mL)
MIC [9]: 0.8 µM (≈ 2.28 µg/mL)
MBC [10]: 25 µM (≈ 71.2 µg/mL)
MIC [10]: 6.25 µM (≈ 17.8 µg/mL)
MBC [11]: 3.12 µM (≈ 8.88 µg/mL)
MIC [11]: 1.5 µM (≈ 4.27 µg/mL)
MBC [12]: > 50 µM
MIC [12]: 50 µM (≈ 142 µg/mL)
MBC [13, 25]: 5 µM (≈ 14.2 µg/mL)
MIC [13, 25]: 5 µM (≈ 14.2 µg/mL)
MBC [13, 26]: 5 µM (≈ 14.2 µg/mL)
MIC [13, 26]: 5 µM (≈ 14.2 µg/mL)
MBC [14]: > 50 µM
MIC [14]: 50 µM (≈ 142 µg/mL)
MBC [15, 27]: 5 µM (≈ 14.2 µg/mL)
MIC [15, 27]: 5 µM (≈ 14.2 µg/mL)
MBC ([15]; Table 5, S. aureus ATCC 6538): 5 µM (≈ 14.2 µg/mL)
MIC ([15]; Table 5, S. aureus ATCC 6538): 5 µM (≈ 14.2 µg/mL)
MBC [16]: 12.5 µM (≈ 35.6 µg/mL)
MIC [16]: 6.25 µM (≈ 17.8 µg/mL)
MBC [17]: 10 µM (≈ 28.5 µg/mL)
MIC [17]: 10 µM (≈ 28.5 µg/mL)
MBC [18]: 10 µM (≈ 28.5 µg/mL)
MIC [18]: 10 µM (≈ 28.5 µg/mL)
MBC [19]: > 50 µM
MIC [19]: > 50 µM
MBC [20]: 12.5 µM (≈ 35.6 µg/mL)
MIC [20]: 6.25 µM (≈ 17.8 µg/mL)

ALWKTLLKKVGKVAGKAVLNAVTNMANQNE-OH [DA2NE]
death of immune cells [21]: induce the death of immune cells at a concentration of 12.5 µM with a comparable efficacy to DA2N
MBC [1, 23]: 50 µM
MIC [1, 23]: 12.5 µM
MBC ([3]; Table 5, E. coli ATCC 8739): 1.6 µM
MIC ([3]; Table 5, E. coli ATCC 8739): 0.8 µM
MBC [13, 26]: 3.1 µM
MIC [13, 26]: 3.1 µM
MBC ([15]; Table 5, S. aureus ATCC 6538): 12.5 µM
MIC ([15]; Table 5, S. aureus ATCC 6538): 3.1 µM

Source: patent US20230192772A1, “ANTIMICROBIAL PEPTIDES AND USES THEREOF” (SORBONNE UNIVERSITE, priority 2016, published 2023)
